Source: patent US20210299176A1, “COMPOSITIONS AND METHODS FOR TREATING CANCER AND AUTOIMMUNE DISEASES” (CEDARS-SINAI MEDICAL CENTER, priority 2018, published 2021)

How the values were obtained:
B16 melanoma = B16 melanoma implantation in C57 BL mice, treatment with GITR agonist; type: in vivo; conditions: intraperitoneal 30 mg/kg twice per week vs DMSO control; p=0.0333, log rank
Description: After implantation of B16 melanoma, C57 BL mice underwent treatment with 11702 GITR agonist or DMSO control. (A) Animals lived longer after GITR agonist intraperitoneal 30 mg/kg treatment twice per week (p=0.0333, log rank). (B) Tumor volume was inhibited in 11702 treated animals (p<0.05, Anova).
After implantation of B16 melanoma, C57 BL mice underwent treatment with 11702 GITR agonist or DMSO control. […] (B) Tumor volume was inhibited in 11702 treated animals (p<0.05, Anova).

[1] = system: CD4+CD25- cells (T effector cells); assay: T cell suppression assay (CFSE proliferation of T effector cells, FACS); type: cell-based, human; conditions: for inhibition (decrease) of T cell proliferation: T effector without T-reg
Source text: FIGS. 1A-1B show the results of where PBMC was isolated (Ficoll, GE Healthcare) from the WBC cone collected from healthy platelet donor. Cells were washed and passed through 40 um cell strainer before being stained with T cell surface antibodies. Then cells were put on cell sorter (BD FACSARIA III). Specific cell populations were collected as follows: CD4^+CD25^− cells (T effector cells), CD4^+CD25^+CD45RA^+CD127^− cells (T regulatory cells) and CD3^− cells (serve as Antigen Presenting Cells, APC). T effector cells were labeled with CellTrace CFSE (Invitrogen), heavily washed before cell number counting. Effector cells and T-regs were then mixed together at 1:1 ratio in culture media (RPMI 1640, 10% FBS, Pen-Strep and 1% NEAA) which enhanced with anti-CD3 (3 ug/ml) anti-CD28 (2 ug/ml) antibodies. APCs were treated with Mitomycin (50 ug/ml) for 30 minutes at 37° C., 5% CO2 incubator, then added to culture mix (APC:T-eff 2:1) as a proliferation co-stimulator. Cell mixture was incubated at 37° C., 5% CO2 for 6 days before being re-stained with T cell surface markers (CD4, CD25) and sent for FACS analysis. (A) T-eff fully stimulated; (B) T-eff fully stimulated+T-reg (1:1).
PBMC was isolated and specific human T cell populations were collected as follows: CD4^+CD25^− cells (T effector cells), CD4^+CD25^+CD45RA^+CD127^− cells (T regulatory cells) and CD3^− cells (serve as Antigen Presenting Cells, APC). T effector cells were labeled with CellTrace CFSE and effector cells and T-regs were then mixed together at 1:1 ratio in culture media (RPMI 1640, 10% FBS, Pen-Strep and 1% NEAA) which enhanced with anti-CD3 (3 ug/ml) anti-CD28 (2 ug/ml) antibodies. APCs were treated with Mitomycin (50 ug/ml) for 30 minutes at 37° C., 5% CO2 incubator, then added to culture mix (APC:T-eff 2:1) as a proliferation co-stimulator, incubated, and sent for FACS analysis. Molecule 11702 agonist and 11704 antagonist were added to treat groups respectively at a concentration gradient of 5 uM, 25 uM and 50 uM.
PBMC was isolated (Ficoll, GE Healthcare) from the WBC cone collected from healthy platelet donor. Cells were washed and passed through 40 um cell strainer before being stained with T cell surface antibodies. Then cells were put on cell sorter (BD FACSARIA III). Specific cell populations were collected as follows: CD4^+CD25^− cells (T effector cells), CD4^+CD25^+CD45RA^+CD127^− cells (T regulatory cells) and CD3^− cells (serve as Antigen Presenting Cells, APC). T effector cells were labeled with CellTrace CFSE (Invitrogen), heavily washed before cell number counting. Effector cells and T-regs were then mixed together at 1:1 ratio in culture media (RPMI 1640, 10% FBS, Pen-Strep and 1% NEAA) which enhanced with anti-CD3 (3 ug/ml) anti-CD28 (2 ug/ml) antibodies. […]

Compound	survival of animals (B16 melanoma)	inhibition at 50 µM ([1]; Homo sapiens, T-cell, T effector + T-reg (1:1), 50 uM, read-out: inhibition (decrease) of proliferation compared to base line) [%]	effect on T effector cell population ([1]; T cell suppression assay, with and without Tregs, more effective in the presence of Tregs)	inhibition (decrease) of T cell proliferation ([1]; 5 uM)	inhibition (decrease) of T cell proliferation ([1]; 25 um)
OCC1OC(Nc2ccc(-c3ccc(NC4CC(O)C(CO)O4)cc3)cc2)CC1O (centres unmarked) [RMGL171102]	lived longer				
O=C(CCCCC(=O)NN=Cc1cccc(O)c1)NN=Cc1cccc(O)c1 [RMGL171104]		55.9	dose dependent retraction of T effector cells	no significant effect	no significant effect
